Assay results from BindingDB's records for doi:10.1021/ml2001196 (2011).

Experiments:
[1] = Antagonist activity at CRTH2 receptor in human whole blood assessed as inhibition of PGD2-induced eosinophil chemotaxis
[2] = Antagonist activity at CRTH2 receptor in human whole blood assessed as inhibition of PGD2-induced eosinophil shape change pretreated for 20 mins measured after 1 hr by flow cytometric analysis

CN1C(=O)N(Cc2cc(Cl)ccc2F)C(=O)[C@]12C(=O)N(CC(=O)O)c1ccc(Cl)cc12
IC50 [1]: 47 nM

O=C(O)CN1C(=O)[C@@]2(NC(=O)N(Cc3cc(Cl)ccc3F)C2=O)c2cc(Cl)ccc21
IC50 [1]: 7.4 nM
IC50 [2]: 69 nM

CN1C(=O)N(Cc2csc(-c3ccccc3)n2)C(=O)C12C(=O)N(CC(=O)O)c1ccc(Cl)cc12 (stereo unspecified)
IC50 [2]: 3940 nM

O=C(O)CN1C(=O)[C@@]2(CC(=O)N(Cc3cc(Cl)ccc3F)C2)c2cc(Cl)ccc21 [2-[(3S)-5-chloro-1'-[(5-chloro-2-fluorophenyl)methyl]-1,2-dihydrospiro[indole-3,3'-pyrrolidine]-2,5'-dione]acetic acid]
IC50 [1]: 62 nM
IC50 [2]: 1800 nM
